# From ChEMBL document CHEMBL5724796, “Tm Shift (DSF) assay results for EUbOPEN Chemogenomics Library” (2024)
# Where “and” joins values, the source holds several entries; their conditions need not be identical. Identical values can stand only once. Residues, ends and D or L forms follow the SMILES beside them.
# How the values were obtained:
# [1] = target: Fibroblast growth factor receptor 2 (Homo sapiens) (UniProt P21802); details: Compound concentration 20.0 uM
# Description: Thermal Shift Assay. Domain: start/stop: T457-E768
# [2] = target: T1, Peregrin (Homo sapiens) (UniProt P55201); details: Compound concentration 20.0 uM
# T1 sequence (whole entry): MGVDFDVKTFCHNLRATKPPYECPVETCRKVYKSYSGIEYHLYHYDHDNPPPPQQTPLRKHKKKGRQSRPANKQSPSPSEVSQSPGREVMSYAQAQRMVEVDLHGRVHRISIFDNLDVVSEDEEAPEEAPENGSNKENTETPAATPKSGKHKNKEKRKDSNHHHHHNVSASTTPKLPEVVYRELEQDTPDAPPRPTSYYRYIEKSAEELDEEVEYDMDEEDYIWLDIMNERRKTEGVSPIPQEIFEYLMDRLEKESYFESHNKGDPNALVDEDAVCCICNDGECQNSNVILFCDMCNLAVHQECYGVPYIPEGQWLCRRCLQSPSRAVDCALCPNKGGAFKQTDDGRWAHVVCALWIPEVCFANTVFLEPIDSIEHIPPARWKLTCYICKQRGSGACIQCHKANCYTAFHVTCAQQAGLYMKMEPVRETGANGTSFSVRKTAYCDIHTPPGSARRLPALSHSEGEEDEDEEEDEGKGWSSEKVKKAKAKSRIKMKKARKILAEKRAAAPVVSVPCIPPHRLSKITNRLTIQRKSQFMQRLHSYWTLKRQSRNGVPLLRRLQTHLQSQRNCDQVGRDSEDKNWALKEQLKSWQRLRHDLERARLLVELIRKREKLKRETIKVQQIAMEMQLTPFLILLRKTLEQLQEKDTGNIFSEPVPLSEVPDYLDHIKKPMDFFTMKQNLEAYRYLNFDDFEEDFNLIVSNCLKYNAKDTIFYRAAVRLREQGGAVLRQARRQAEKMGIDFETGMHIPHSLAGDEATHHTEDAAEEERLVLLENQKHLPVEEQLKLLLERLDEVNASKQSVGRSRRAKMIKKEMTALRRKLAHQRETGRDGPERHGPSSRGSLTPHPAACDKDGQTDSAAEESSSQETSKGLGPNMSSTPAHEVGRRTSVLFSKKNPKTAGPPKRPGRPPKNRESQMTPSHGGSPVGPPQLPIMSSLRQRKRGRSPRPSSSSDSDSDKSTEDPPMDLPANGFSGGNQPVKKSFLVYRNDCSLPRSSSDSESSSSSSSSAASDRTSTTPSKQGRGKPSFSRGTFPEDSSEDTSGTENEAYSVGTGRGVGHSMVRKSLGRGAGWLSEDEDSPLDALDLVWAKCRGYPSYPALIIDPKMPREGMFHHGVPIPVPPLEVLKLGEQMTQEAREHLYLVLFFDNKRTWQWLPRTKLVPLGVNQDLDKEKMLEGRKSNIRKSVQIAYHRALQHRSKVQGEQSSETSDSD
# Chain of Fibroblast growth factor receptor 2 (Homo sapiens) (P21802 22-821 limits assumed): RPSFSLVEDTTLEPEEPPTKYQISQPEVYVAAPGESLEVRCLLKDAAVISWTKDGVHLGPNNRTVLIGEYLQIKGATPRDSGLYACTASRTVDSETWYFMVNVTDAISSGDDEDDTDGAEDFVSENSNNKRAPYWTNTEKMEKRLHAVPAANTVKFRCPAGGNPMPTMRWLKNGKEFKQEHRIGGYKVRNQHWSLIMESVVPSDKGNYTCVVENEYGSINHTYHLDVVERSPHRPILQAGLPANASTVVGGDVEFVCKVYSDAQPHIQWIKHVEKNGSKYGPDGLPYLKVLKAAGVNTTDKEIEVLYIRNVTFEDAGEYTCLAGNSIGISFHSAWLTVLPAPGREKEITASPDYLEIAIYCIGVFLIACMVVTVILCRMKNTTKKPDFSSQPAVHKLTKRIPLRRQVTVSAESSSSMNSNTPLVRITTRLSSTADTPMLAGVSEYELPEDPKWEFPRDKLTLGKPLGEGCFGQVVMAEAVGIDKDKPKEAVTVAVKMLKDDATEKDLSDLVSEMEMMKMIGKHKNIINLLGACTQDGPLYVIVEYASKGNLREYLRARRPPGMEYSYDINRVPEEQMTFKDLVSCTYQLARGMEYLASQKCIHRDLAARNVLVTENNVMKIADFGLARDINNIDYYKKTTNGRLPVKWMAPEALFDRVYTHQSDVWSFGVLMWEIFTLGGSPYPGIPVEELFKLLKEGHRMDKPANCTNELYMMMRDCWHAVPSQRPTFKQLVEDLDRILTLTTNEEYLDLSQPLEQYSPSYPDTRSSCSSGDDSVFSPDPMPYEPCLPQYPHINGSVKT
SMILES,ΔTm [1],ΔTm [2]
CCS(=O)(=O)Cc1cnc(Oc2ccc(F)cc2F)c(-c2cc(C)c3c(=O)[nH]ccn23)c1,0.35 °C,2.87 °C
N#C[C@@H]1CCCN1C(=O)[C@@H]1CCCN1C(=O)CCCc1ccccc1,0.84 °C,-1.55 °C
COc1c(CN)cc(CN)cc1OCCCN1Cc2ccccc2C1,0.36 °C,0.41 °C
Cc1n[nH]c(C)c1Cc1sc2c(c1C(=O)N1C[C@H](O)CO1)c(=O)n(C)c(=O)n2CC(C)C,0.22 °C,2.27 °C
CC(C)N(CCCNC(=O)Nc1ccc(C(C)(C)C)cc1)C[C@H]1O[C@@H](n2ccc3c(N)ncnc32)[C@H](O)[C@@H]1O,0.6 °C,-2.69 °C
COCCOc1cc(CC2CCN(CCc3ccc4c(c3)C(=O)CCO4)CC2)ccc1Br,-0.65 °C,1.8 °C
C=C(C)[C@@H](CC=C(C)C)C[C@@]12C[C@@H](CC=C(C)C)C(C)(C)[C@@](CC=C(C)C)(C(=O)C(C(=O)c3ccc(O)c(O)c3)=C1O)C2=O,-5.95 °C,-4.72 °C
CC(C)(C)c1ccc(S(=O)(=O)NCc2ccc(C(=O)Nc3cccnc3)cc2)cc1,-0.54 °C,-0.61 °C
CC(C)C[C@@H](C=O)NC(=O)[C@@H](NS(=O)(=O)c1ccc(F)cc1)C(C)C,-0.07 °C,-1.65 °C
CCC1CCCCN1C(=O)n1ncc(C(O)(c2ccccc2)c2ccccc2)n1 (configuration not stated),-0.25 °C,-0.98 °C
N=C(N)NC(=O)c1cnn(-c2cccc3ncccc23)c1C1CC1,-0.51 °C,-0.17 °C
CC(C)NC(=O)c1ccc(OC(F)F)c(OCC2CC2)c1,0.29 °C,0.69 °C
Cc1cc(/N=N/c2ccc3c(c2)CCC(=O)N3)c(N)cc1O,0.16 °C,1.01 °C
Cc1cc2cc(NS(=O)(=O)c3ccc(C#N)cc3)ccc2n(C)c1=O,0.4 °C,8.89 °C
NC(=O)C1CN(CCCCC(c2ccc(F)cc2)c2ccc(F)cc2)CCN1CC(=O)Nc1c(Cl)cc(N)cc1Cl (configuration not stated),-9.38 °C,-3.73 °C
Nc1nc(NC2CC2)cc(-c2cccc(Cl)c2Cl)n1,0.04 °C,0.95 °C
CC(=O)N[C@@H](Cc1ccc(O)cc1)C(=O)N[C@H](C(=O)N[C@@H](C)C(=O)N[C@@H](CC(=O)O)C(=O)CCl)C(C)C,0.63 °C,-1.75 °C
Cn1c(=O)c2c(nc(N3CCNCC3)n2Cc2nnc(-c3ccc(Cl)c(Cl)c3)o2)n(C)c1=O,0.08 °C,-0.83 °C
CCC(=O)N1CCOc2c(cc(-c3cc(OC)cc(OC)c3)cc2C(=O)N[C@H]2CCCN(C)C2)C1,0.29 °C,-0.83 °C
COc1cn(-c2ccc(-n3cccn3)cc2F)nc(-c2ccnn2-c2ccccc2)c1=O,0.54 °C,1.13 °C
O=C1CCc2cc(OCCCCc3nnnn3C3CCCCC3)ccc2N1,-0.38 °C,-1.16 °C

SMILES,ΔTm [1],ΔTm [2]
OC[C@H]1O[C@@H](c2ccc(F)c(Cc3cc4ccccc4s3)c2)[C@H](O)[C@@H](O)[C@@H]1O,-0.55 °C,1.12 °C
CN(CCOc1ccc(-c2ccc3c(c2)OCO3)cc1C(C)(C)C)CC(=O)O,-0.25 °C,2.31 °C
O=C(C[C@@H](C(F)F)n1ccc(F)n1)N1CCC(O)(Cn2cnc3c(cnn3-c3ccc(F)cc3)c2=O)CC1,0.2 °C,0.9 °C
COc1cc(Nc2ncc(F)c(Nc3ccc4c(n3)N(COP(=O)(O)O)C(=O)C(C)(C)O4)n2)cc(OC)c1OC,4.69 °C,-0.81 °C
CCOc1ccc(S(=O)(=O)Nc2ccc(Cl)cc2C#Cc2cnc(C(=O)O)cc2OC)c2ncccc12,0.19 °C,0 °C
N[C@@H](CCCCB(O)O)C(=O)O,0.29 °C,0.2 °C
N#Cc1ccc([C@H]2CCCC[C@H]2O)cc1C(F)(F)F,-0.09 °C,-0.66 °C
CCc1c(C#N)c(S[C@@H](C(N)=O)c2ccccc2)nc(N(C)C)c1C#N,-0.11 °C,2.36 °C
O=C(NCCCc1ccccc1)c1cccc(-c2cc(O)c3ncccc3c2)c1,0.19 °C,3.29 °C
CC(C)[C@H](NC(=O)OCc1ccccc1)C(=O)NC(CC(=O)O)C(=O)CF (some centres not stated),0.74 °C,-1.71 °C
CC(C)(C)NS(=O)(=O)c1ccc(NC(=O)[C@H](Cc2ccccc2)NC(=O)c2ccc(F)cc2)cc1,0.56 °C,0.73 °C
Nc1ccccc1NC(=O)c1ccc(CNC(=O)OCc2cccnc2)cc1,0.41 °C,-0.57 °C
C[C@]12O[C@H](C[C@]1(O)CO)n1c3ccccc3c3c4c(c5c6ccccc6n2c5c31)CNC4=O,5.19 °C,-0.7 °C
CCCc1nc(C)c2c(=O)nc(-c3cc(S(=O)(=O)N4CCN(CC)CC4)ccc3OCC)[nH]n12,0.41 °C,1.02 °C
CC(C)(O)c1ccc(-c2nc3c(F)cc(F)cc3c(=O)[nH]2)cc1,-3.32 °C,-0.9 °C
CC(=O)Nc1ccc(-c2cc(-c3ccccc3)nc3cc(C(=O)NCCCn4ccnc4)nn23)cc1,0.21 °C,-0.4 °C
COc1ncc(C)cc1CC[C@@](O)(CC(=O)O)C(=O)O,0.32 °C,1.67 °C
O=S(=O)(CSc1nnc(Br)n1Cc1ccc(Br)c2ccccc12)Nc1cccnc1,-0.32 °C,1.59 °C
CC(C)c1c(-c2cnn(C(C)(C)C)c2)[nH]c2c(C#N)cnn2c1=O,0.36 °C,0.8 °C
COc1ccc(C2C(C#N)=C(N)OC3=C2C(=O)CC(c2cccc4ccccc24)C3)cc1 (configuration not stated),-0.92 °C,0.11 °C
CN(C)NC(=O)CCC(=O)O,0.18 °C,0.25 °C

SMILES,ΔTm [1],ΔTm [2]
CN(C)CCCCC(=O)Nc1ccc(NC(=S)NC(=O)c2ccc(C(C)(C)C)cc2)cc1,-0.03 °C,-0.35 °C
CC(=O)N[C@@H](Cc1ccc(O)cc1)C(=O)N[C@H](C(=O)N[C@@H](C)C(=O)N[C@H](C=O)CC(=O)O)C(C)C,0.54 °C,-1.25 °C
COC[C@@H]1CCCN1S(=O)(=O)c1ccc2c(c1)C(=O)C(=O)N2,0.48 °C,-0.85 °C
Cn1c(=O)cc(N2CCC[C@@H](N)C2)n(Cc2cc(F)ccc2C#N)c1=O,0.72 °C,0.76 °C
O=C1C(=O)N(Cc2ccccc2)c2ccc(S(=O)(=O)N3CCC[C@H]3COc3ccc(C(F)(F)F)cc3)cc21,1.01 °C,-2.14 °C
Cc1ncsc1-c1ccc(CNC(=O)[C@@H]2C[C@@H](O)CN2C(=O)[C@@H](NC(=O)COCC(C)(COCCOCCOCCNC(=O)C[C@@H]2N=C(c3ccc(Cl)cc3)c3c(sc(C)c3C)-n3c(C)nnc32)COCCOCCOCCNC(=O)C[C@@H]2N=C(c3ccc(Cl)cc3)c3c(sc(C)c3C)-n3c(C)nnc32)C(C)(C)C)cc1,-1.18 °C,-5.29 °C
CC[C@H](C)[C@H](NC(=O)[C@H](CCC(=O)O)NC(=O)[C@@H](NC(C)=O)C(C)C)C(=O)N[C@H](C=O)CC(=O)O (Ac-VEID-aldehyde),-0.3 °C,-1.43 °C
N#Cc1ccc(-c2csc(NN=C3CCCC3)n2)cc1,0.36 °C,-0.85 °C
O=C(CCCCCCNC(=O)c1cnc(N(c2ccccc2)c2ccccc2Cl)nc1)NO,0.65 °C,-1.49 °C
COc1cc(C)[nH]c(=O)c1CNC(=O)c1c(C)n([C@H](C)C2CCN(CC(F)(F)F)CC2)c2ccccc12,0.91 °C,-1.59 °C
COc1cc(C(C)C)c2c(c1)S(=O)(=O)N(COc1cc(=O)n3cccc(OCCN4CCCCC4)c3n1)C2=O,1.04 °C,-1.13 °C
CCCCN(Cc1ccc(C(=O)NO)cc1)C(=O)Nc1ccccc1,-0.44 °C,-0.92 °C
CCO/N=C1\c2ccccc2-c2nc(C#N)c(C#N)nc21,0.21 °C and 0.32 °C,2.55 °C and 0.36 °C
Nc1ncnc2nc(-c3ccc(N4CCOCC4)nc3)cc(-c3cccc(Br)c3)c12,0.52 °C,-0.37 °C
CC(C)N(C(=O)c1cc(F)ccc1Oc1cncnc1N1CC2(CCN(C[C@H]3CC[C@H](NS(C)(=O)=O)CC3)CC2)C1)C(C)C,-0.47 °C,0.63 °C
Cc1c(Nc2ccc(S(=O)(=O)N3CCN(C)CC3)cc2F)nc2ccc(-c3cnn(C4CC4)c3)cn2c1=O,-0.17 °C,0.83 °C
NCCOCCOCCNC(=O)Cc1ccc(Nc2nc(NCc3ccc(F)cc3)nc(NCC3CCCCC3)n2)cc1,0.03 °C,2.13 °C
CC(=O)O[C@]1(C(C)=O)CC[C@H]2[C@@H]3C=C(Cl)C4=CC(=O)[C@@H]5C[C@@H]5[C@]4(C)[C@H]3CC[C@@]21C,0.57 °C,-1.28 °C
CCCOc1ccc(CCc2nc3cc(-c4c(C)noc4C)ccc3n2CCN2CCOCC2)cc1,-0.48 °C,-1.09 °C
